This is an account of results in US11064704B2, “Natural product formulations with improved residual insect repellent/deterrent activity” (University of Mississippi, priority 2016, dated 2021).

The test system of assay [1] is Aedes aegypti females. The conditions noted are these: literature values; cited from earlier work.
The test system of assay [2] is Anopheles quadrimaculatus mosquitoes. As to the kind of experiment: in vitro A&K (Ali and Khan) repellent bioassay. Format: in vivo. The conditions noted are these: compared with DEET. The source says:
The A&K (Ali and Khan) bioassay system is based on the concept that the mosquitoes are attracted to warm temperatures, and this system uses warm temperature to serve as stimulus for landing and feeding. The details of the A&K bioassay systems are given in Ali et al. (2017).
In summary, this in vitro system consisted of a 30×30×30 cm collapsible aluminum cage (Model 1450B, BioQuip Products, 2321 Gladwick Street, Rancho Dominguez, Calif. 90220, USA) with metal screens. On one panel of the cage, metal screen was replaced with a clear acrylic transparent sheet. […] The blood box had three sides covered with acrylic sheet while the front side was open to insert the feeding device. […] The sliding door served to contain the females inside the cage when the feeding device was pulled out for loading the treatment. This door was slid open when the feeding device was pushed in during the bioassay to expose the females to the treatment.
The feeding device had one 3×4 cm rectangular reservoir that contained the feeding solution. The feeding device was connected to the water circulator. The reservoir of the feeding device with feeding solution was covered with a chemical treated collagen sheet. To observe the landing and feeding of female mosquitoes, feeding solution in the reservoir was heated to match the human body temperature using a water circulator which was set at 37° C. The feeding solution had 3-4° C. higher temperature than the solid platform, and this increased temperature of the feeding solution became a better source of attraction and preference for the mosquitoes than the other parts of the feeding device.
The rectangular reservoir of the feeding device was filled with the CPDA 1+ATP solution having a few drops of green fluorescent traceable water-soluble dye to serve as a feeding source. A test was started when the 3×4 cm marked areas of collagen were treated with the desired chemical in a volume of 50 μL/[…]. The treated collagen sheet was then secured on the reservoir using a thin layer of high vacuum grease (Dow Corning Corporation, Midland, Mich. 48686). The feeding device was then pushed into the blood box and the sliding door was opened to expose females to the treatment.
Stock solutions were made in ethanol. All the dilutions were made in EtOH and applied in a volume of 50 μL covering […] of the collagen sheet. Minimum effective dosage (MED) values in this in vitro bioassay were determined using a method described by Katritzky et al. (2010).
The cage contained 200±10, 8-18 day old female mosquitoes. The number of mosquitoes landing and biting were recorded visually for 1 minute. Three or four cages were used at a time, and one treatment was evaluated in a single cage. The minimum dose at which 2 or less mosquitoes (i.e. less than or equal to 1% of 200 females in the cage) started feeding in 1 minute was the minimum effective dose (“MED”). Continuous exposure of the mosquitoes in the cage can result in reduced landing and biting, therefore, 3-4 cages were used and only one replication was completed for each chemical in a single cage. To ensure accuracy of the treatment, rectangular areas of (3×4 cm (12 cm^2) or 7.5×4 cm (30 cm^2) were marked on the collagen that matched the measurement of the rectangular liquid reservoirs. Treatments were applied in a volume of 50 μL (12 cm^2 area) or 107 μL (30 cm^2 area). Treated collagen sheets were secured on a feeding reservoir containing CPDA-1+ATP solution using a thin layer of grease (Dow Corning Corp, Midland, Mich.). The feeding device was pushed inside the blood box and the sliding door was […] to expose the females to the treatment.
To ensure the normal activity (≥10% landing), control treatment was repeated after every 5 replications, and the bioassay was stopped if the response was less than the control. The data is presented as MED values with the mean percentage biting (±SEM) in parenthesis. […]

The test system of assay [3] is An. quadrimaculatus. The experiment in a line: in vitro Klun and Debboun (K&D) biting deterrent bioassay. Format: in vivo, Anopheles quadrimaculatus. The protocol: Experiments were conducted by using a six-celled in vitro Klun and Debboun (K&D) module bioassay system developed by Klun et al. (2005) for quantitative evaluation of biting deterrence. Briefly, the assay system consists of a six well reservoir with each of the 3×4 cm wells containing 6 mL of blood or feeding solution. As described by Ali et al. (2012), a feeding solution consisting of CPDA-1 and ATP was used instead of blood. Green fluorescent tracer dye (www.blacklightworld.com) was used to determine the feeding by the females. Carrot seed essential oil was initially tested to determine the biting deterrent activity. […] Essential oil and carotol were further tested against Ae. aegypti and An. quadrimaculatus in this bioassay. Treatments of carrot seed essential oil at 10 μg/cm^2 and carotol were tested at 10 and 5 μg/cm^2, whereas DEET (97% N,N-diethyl-meta-toluamide) (Sigma Aldrich, St. Louis, Mo.) at 25 nmol/cm^2 was used as positive control. All the treatments were freshly prepared in molecular biology grade 100% ethanol (Fisher Scientific Chemical Co. Fairlawn, N.J.) at the time of bioassay.
The temperature of the solution in the reservoirs was maintained at 37° C. by continuously passing warm water through the reservoir using a circulatory bath. The reservoirs were covered with a layer of collagen membrane (Devro, Sandy Run, S.C.). The test compounds were randomly applied to six 4×5 cm areas of organdy cloth and positioned over the membrane-covered CPDA-1+ATP solution with a Teflon® separator placed between the treated cloth and the six-celled module to prevent the contamination of the module. […] The number of mosquitoes biting through organdy treatments in each cell was recorded after a 3 minute exposure, and mosquitoes were prodded back into the cells to check the actual feeding. […] Proportion not biting (PNB) was calculated using the procedure described by Ali et al. (2012).

In the case of `CCN(CC)C(=O)c1cccc(C)c1` [DEET, N,N-diethyl-meta-toluamide, reference compound], the “MED values reported by Ali et al. (2012) and Katritzky et al. (2010)” value in assay [1] was 9 μg/cm^2.

Consider `CC1=CC[C@]2(C)CC[C@@H](C(C)C)[C@]2(O)CC1` [carotol], for which the “repellent activity” value in assay [2] is “comparable to DEET”. Besides, the “proportion not biting (PNB)” value is 0.72 in assay [3] (25 nmol/cm^2) and 0.78 in assay [3] (10 μg/cm^2). For the same compound, the “biting deterrent activity” value in assay [3] (compared with DEET) is recorded as “comparable to DEET”.
